Assay results published in US20080233561A1, “Method for Measuring Cytopathic Effect Due to Viral Infection in Cells Using Electric Cell-Substrate Impedance Sensing” (UNIVERSITY OF LOUISVILLE RESEARCH FOUNDATION, INC., priority 2005, published 2008).

Test system: PR8 influenza A virus (influenza/A/PR/8/34 virus)
Format: cell-based
Conditions: MDCK cells pretreated 1 hour with 20 mM NH4Cl and kept under NH4Cl; […]; approximately 48 hours PI; 4,000 Hz; listed as ammonium chloride (NH4Cl)

Structure (SMILES): Cl.N [NH4Cl, ammonium chloride]
- signal resistance (ECIS) of the cell monolayer following influenza inoculation: the reduction in signal resistance due to influenza infection is abolished
